In patent US10543212B2, “Substituted amines for treating cardiac diseases” (Cardurion Pharmaceuticals, LLC, priority 2017, dated 2020):

Each compound was assayed against T1, Full-length, GST-tagged, human CaMKIIδ (Homo sapiens, UniProt Q13557) (assay: CaMKIIδ binding assay (TR-FRET with BODIPY-labeled probe ligand)). Conditions: CaMKIIδ binding assay; activity class per Table 2.
T1 construct: Full-Length, Glutathione-S-Transferase(GST)-Tagged, Human CaMKIIδ was purchased from Carna Biosciences; purchased Carna Biosciences 02-111
T1 sequence (Q13557 1-478 isoform Q13557-12): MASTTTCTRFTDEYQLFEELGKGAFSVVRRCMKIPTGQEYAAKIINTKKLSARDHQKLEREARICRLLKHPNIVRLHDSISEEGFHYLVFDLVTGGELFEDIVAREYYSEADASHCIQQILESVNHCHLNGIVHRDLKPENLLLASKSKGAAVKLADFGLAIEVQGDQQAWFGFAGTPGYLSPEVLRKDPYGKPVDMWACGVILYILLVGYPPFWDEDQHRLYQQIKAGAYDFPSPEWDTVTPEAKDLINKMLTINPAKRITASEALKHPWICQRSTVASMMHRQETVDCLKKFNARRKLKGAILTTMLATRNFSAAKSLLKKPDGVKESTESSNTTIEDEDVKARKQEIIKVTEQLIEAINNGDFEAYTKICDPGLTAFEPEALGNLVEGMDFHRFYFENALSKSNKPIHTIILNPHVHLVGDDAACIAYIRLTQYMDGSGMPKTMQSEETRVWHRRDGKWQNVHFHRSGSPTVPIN
Outline: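 TR-FRET probe-displacement binding: 0.5 nM GST-CaMKIIδ with 10 μg/mL calmodulin, 1 mM CaCl2, 0.21 nM Tb-anti-GST Ab and 300 nM BODIPY probe in HEPES pH 7.6 buffer. Eight-point 4-fold dilutions, 1 hr at room temperature. IC50 from logistic fit; 100% inhibition defined by 3 μM parent compound.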
`CC(C)c1nn(C2CC3(C2)CN(C(=O)OC(C)(C)C)C3)cc1Nc1ncc(-c2ccc(Cl)c(O[C@@H](C)Cn3cnnn3)c2)cn1` [Example 931, tert-butyl (S)-6-(4-((5-(3-((1-(1H-tetrazol-1-yl)propan-2-yl)oxy)-4-chlorophenyl)pyrimidin-2-yl)amino)-3-isopropyl-1H-pyrazol-1-yl)-2-azaspiro[3.3]heptane-2-carboxylate] was tested, and the IC50 was 10 to 100 nM. `C[C@@H](Cn1cnnn1)Oc1cc(-c2cnc(Nc3cn(C4CC5(C4)CN(C4COC(C)(C)OC4)C5)nc3OCC(F)(F)F)nc2)ccc1Cl` [Example 932, (S)-5-(3-((1-(1H-tetrazol-1-yl)propan-2-yl)oxy)-4-chlorophenyl)-N-(1-(2-(2,2-dimethyl-1,3-dioxan-5-yl)-2-azaspiro[3.3]heptan-6-yl)-3-(2,2,2-trifluoroethoxy)-1H-pyrazol-4-yl)pyrimidin-2-amine] was tested, and the IC50 was under 10 nM. Compound `C[C@@H](Cn1cnnn1)Oc1cc(-c2cnc(Nc3cn(C4CC5(C4)CN(C4CCC4)C5)nc3OCC(F)(F)F)nc2)ccc1Cl` [Example 933, (S)-5-(3-((1-(1H-tetrazol-1-yl)propan-2-yl)oxy)-4-chlorophenyl)-N-(1-(2-cyclobutyl-2-azaspiro[3.3]heptan-6-yl)-3-(2,2,2-trifluoroethoxy)-1H-pyrazol-4-yl)pyrimidin-2-amine] has an IC50 of under 10 nM. For `CC(C)c1nn(C2CC3(CNC3)C2)cc1Nc1ncc(-c2ccc(Cl)c(O[C@@H](C)Cn3cnnn3)c2)cn1` [Example 934, (S)-5-(3-((1-(1H-tetrazol-1-yl)propan-2-yl)oxy)-4-chlorophenyl)-N-(3-isopropyl-1-(2-azaspiro[3.3]heptan-6-yl)-1H-pyrazol-4-yl)pyrimidin-2-amine], the IC50 was under 10 nM. Work on `CC(C)c1nn(C2CC3(C2)CN(C2COC2)C3)cc1Nc1ncc(-c2ccc(Cl)c(O[C@@H](C)Cn3cnnn3)c2)cn1` [Example 935, (S)-5-(3-((1-(1H-tetrazol-1-yl)propan-2-yl)oxy)-4-chlorophenyl)-N-(3-isopropyl-1-(2-(oxetan-3-yl)-2-azaspiro[3.3]heptan-6-yl)-1H-pyrazol-4-yl)pyrimidin-2-amine] yielded an IC50 of under 10 nM. In the case of `CC(C)c1nn(C2CC3(C2)CN(C2CCOCC2)C3)cc1Nc1ncc(-c2ccc(Cl)c(O[C@@H](C)Cn3cnnn3)c2)cn1` [Example 936, (S)-5-(3-((1-(1H-tetrazol-1-yl)propan-2-yl)oxy)-4-chlorophenyl)-N-(3-isopropyl-1-(2-(tetrahydro-2H-pyran-4-yl)-2-azaspiro[3.3]heptan-6-yl)-1H-pyrazol-4-yl)pyrimidin-2-amine], the IC50 is reported as under 10 nM. `C[C@@H](Cn1cnnn1)Oc1cc(-c2cnc(Nc3cn(C4CC5(C4)CN(C4(C)CCOCC4)C5)nc3OCC(F)(F)F)nc2)ccc1Cl` [Example 937, (S)-5-(3-((1-(1H-tetrazol-1-yl)propan-2-yl)oxy)-4-chlorophenyl)-N-(1-(2-(4-methyltetrahydro-2H-pyran-4-yl)-2-azaspiro[3.3]heptan-6-yl)-3-(2,2,2-trifluoroethoxy)-1H-pyrazol-4-yl)pyrimidin-2-amine] was tested, and the IC50 was under 10 nM. With `C[C@@H](Cn1cnnn1)Oc1cc(-c2cnc(Nc3cn(C4CC5(C4)CN(C4CCOCC4)C5)nc3OCC(F)(F)F)nc2)ccc1C#N` [Example 938, (S)-2-((1-(1H-tetrazol-1-yl)propan-2-yl)oxy)-4-(2-((1-(2-(tetrahydro-2H-pyran-4-yl)-2-azaspiro[3.3]heptan-6-yl)-3-(2,2,2-trifluoroethoxy)-1H-pyrazol-4-yl)amino)pyrimidin-5-yl)benzonitrile] the IC50 was under 10 nM. With `C[C@@H](Cn1cnnn1)Oc1cc(-c2cnc(Nc3cn(C4CC5(C4)CN(C4CCOCC4)C5)nc3OCC(F)(F)F)nc2)ccc1C(F)F` [Example 939, (S)-5-(3-((1-(1H-tetrazol-1-yl)propan-2-yl)oxy)-4-(difluoromethyl)phenyl)-N-(1-(2-(tetrahydro-2H-pyran-4-yl)-2-azaspiro[3.3]heptan-6-yl)-3-(2,2,2-trifluoroethoxy)-1H-pyrazol-4-yl)pyrimidin-2-amine] the IC50 was under 10 nM. In the case of `C[C@@H](Cn1cnnn1)Oc1cc(-c2cnc(Nc3cn([C@H]4C[C@H](NC(=O)OC(C)(C)C)C4)nc3OCC(F)(F)F)nc2)ccc1Cl` [Example 940, tert-butyl (trans-3-(4-((5-(3-(((S)-1-(1H-tetrazol-1-yl)propan-2-yl)oxy)-4-chlorophenyl)pyrimidin-2-yl)amino)-3-(2,2,2-trifluoroethoxy)-1H-pyrazol-1-yl)cyclobutyl)carbamate], the IC50 is reported as 10 to 100 nM. In the case of `C[C@@H](Cn1cnnn1)Oc1cc(-c2cnc(Nc3cn([C@H]4C[C@H](N)C4)nc3OCC(F)(F)F)nc2)ccc1Cl` [Example 941, 5-(3-(((S)-1-(1H-tetrazol-1-yl)propan-2-yl)oxy)-4-chlorophenyl)-N-(1-(trans-3-aminocyclobutyl)-3-(2,2,2-trifluoroethoxy)-1H-pyrazol-4-yl)pyrimidin-2-amine], the IC50 is reported as under 10 nM. With `C[C@@H](Cn1cnnn1)Oc1cc(-c2cnc(Nc3cn([C@H]4C[C@H](NC5CCOCC5)C4)nc3OCC(F)(F)F)nc2)ccc1Cl` [Example 942, 5-(3-(((S)-1-(1H-tetrazol-1-yl)propan-2-yl)oxy)-4-chlorophenyl)-N-(1-(trans-3-((tetrahydro-2H-pyran-4-yl)amino)cyclobutyl)-3-(2,2,2-trifluoroethoxy)-1H-pyrazol-4-yl)pyrimidin-2-amine] the IC50 was under 10 nM. With `C[C@@H](Cn1cnnn1)Oc1cc(-c2cnc(Nc3cn([C@H]4C[C@H](N5CCOCC5)C4)nc3OCC(F)(F)F)nc2)ccc1Cl` [Example 943, 5-(3-(((S)-1-(1H-tetrazol-1-yl)propan-2-yl)oxy)-4-chlorophenyl)-N-(1-(trans-3-morpholinocyclobutyl)-3-(2,2,2-trifluoroethoxy)-1H-pyrazol-4-yl)pyrimidin-2-amine] the IC50 was under 10 nM. `[2H]C1(N2CC3(CC(n4cc(Nc5ncc(-c6ccc(Cl)c(O[C@@H](C)Cn7cnnn7)c6)cn5)c(OCC(F)(F)F)n4)C3)C2)CCOCC1` [Example 944, 5-(4-chloro-3-{[(2S)-1-(1H-tetrazol-1-yl)propan-2-yl]oxy}phenyl)-N-(1-{2-[(4-^2H)tetrahydro-2H-pyran-4-yl]-2-azaspiro[3.3]heptan-6-yl}-3-(2,2,2-trifluoroethoxy)-1H-pyrazol-4-yl)pyrimidin-2-amine] was tested, and the IC50 was under 10 nM. `C[C@@H](Cn1cnnn1)Oc1cc(-c2cnc(Nc3cn(C4CC5(C4)CN(C4CCC4)C5)nc3OC3COC3)nc2)ccc1Cl` [Example 945, (S)-5-(3-((1-(1H-tetrazol-1-yl)propan-2-yl)oxy)-4-chlorophenyl)-N-(1-(2-cyclobutyl-2-azaspiro[3.3]heptan-6-yl)-3-(oxetan-3-yloxy)-1H-pyrazol-4-yl)pyrimidin-2-amine] was tested, and the IC50 was under 10 nM. Work on `CC(C)c1nn(C2CC3(C2)CN(CC(C)(C)O)C3)cc1Nc1ncc(-c2ccc(Cl)c(O[C@@H](C)Cn3cnnn3)c2)cn1` [Example 947, (S)-1-(6-(4-((5-(3-((1-(1H-tetrazol-1-yl)propan-2-yl)oxy)-4-chlorophenyl)pyrimidin-2-yl)amino)-3-isopropyl-1H-pyrazol-1-yl)-2-azaspiro[3.3]heptan-2-yl)-2-methylpropan-2-ol] yielded an IC50 of under 10 nM. `C[C@@H](Cn1cnnn1)Oc1cc(-c2cnc(Nc3cn(C4CC5(C4)CN(C(=O)OC(C)(C)C)C5)nc3OCC(F)(F)F)nc2)ccc1C(F)F` [Example 948, tert-butyl (S)-6-(4-((5-(3-((1-(1H-tetrazol-1-yl)propan-2-yl)oxy)-4-(difluoromethyl)phenyl)pyrimidin-2-yl)amino)-3-(2,2,2-trifluoroethoxy)-1H-pyrazol-1-yl)-2-azaspiro[3.3]heptane-2-carboxylate] was tested, and the IC50 was at least 100 nM. `C[C@@H](Cn1cnnn1)Oc1cc(-c2cnc(Nc3cn(C4CC5(CNC5)C4)nc3OCC(F)(F)F)nc2)ccc1C(F)F` [Example 949, (S)-5-(3-((1-(1H-tetrazol-1-yl)propan-2-yl)oxy)-4-(difluoromethyl)phenyl)-N-(1-(2-azaspiro[3.3]heptan-6-yl)-3-(2,2,2-trifluoroethoxy)-1H-pyrazol-4-yl)pyrimidin-2-amine] was tested, and the IC50 was under 10 nM. With `C[C@@H](Cn1cnnn1)Oc1cc(-c2cnc(Nc3cn(C4CC5(C4)CN(C4COC4)C5)nc3OCC(F)(F)F)nc2)ccc1C(F)F` [Example 950, (S)-5-(3-((1-(1H-tetrazol-1-yl)propan-2-yl)oxy)-4-(difluoromethyl)phenyl)-N-(1-(2-(oxetan-3-yl)-2-azaspiro[3.3]heptan-6-yl)-3-(2,2,2-trifluoroethoxy)-1H-pyrazol-4-yl)pyrimidin-2-amine] the IC50 was under 10 nM. Work on `C[C@@H](Cn1cnnn1)Oc1cc(-c2cnc(Nc3cn(C4CC5(C4)CN(c4ncccn4)C5)nc3OCC(F)(F)F)nc2)ccc1Cl` [Example 952, (S)-5-(3-((1-(1H-tetrazol-1-yl)propan-2-yl)oxy)-4-chlorophenyl)-N-(1-(2-(pyrimidin-2-yl)-2-azaspiro[3.3]heptan-6-yl)-3-(2,2,2-trifluoroethoxy)-1H-pyrazol-4-yl)pyrimidin-2-amine] yielded an IC50 of under 10 nM. Compound `CCC1(N2CC3(CC(n4cc(Nc5ncc(-c6ccc(Cl)c(O[C@@H](C)Cn7cnnn7)c6)cn5)c(C(C)C)n4)C3)C2)CCOCC1` [Example 953, (S)-5-(3-((1-(1H-tetrazol-1-yl)propan-2-yl)oxy)-4-chlorophenyl)-N-(1-(2-(4-ethyltetrahydro-2H-pyran-4-yl)-2-azaspiro[3.3]heptan-6-yl)-3-isopropyl-1H-pyrazol-4-yl)pyrimidin-2-amine] has an IC50 of under 10 nM. `C[C@@H](Cn1cnnn1)Oc1cc(-c2cnc(Nc3cn(C4CC5(C4)CN(C4(C)CCOC4)C5)nc3OCC(F)(F)F)nc2)ccc1Cl` (stereo partly drawn) [Example 954, 5-(3-(((S)-1-(1H-tetrazol-1-yl)propan-2-yl)oxy)-4-chlorophenyl)-N-(1-(2-(3-methyltetrahydrofuran-3-yl)-2-azaspiro[3.3]heptan-6-yl)-3-(2,2,2-trifluoroethoxy)-1H-pyrazol-4-yl)pyrimidin-2-amine] gave an IC50 of under 10 nM.
